Several values for one entry are separate records, joined by “and”; a condition that tells them apart may be missing. Identical values can stand only once. Like-named read-outs stand apart in the source and are kept apart here.
How the values were obtained:
MCF-7 [1] = settings: for Selectivity index: IC50 MCF-10A / IC50 MCF-7; for percentage of survival: 72 h; for Potency compared to control POD: MCF-7, relative to POD; for Potency compared to control VP-16: MCF-7, relative to VP-16; for IC50: read-out: Cytotoxic activity IC50, MCF-7, 72 h, mean of three independent experiments ± S.D.
MDA-MB-231 [2] = settings: for Selectivity index: IC50 MCF-10A / IC50 MDA-MB-231; for percentage of survival: 72 h; for Potency compared to control POD: MDA-MB-231, relative to POD; for Potency compared to control VP-16: MDA-MB-231, relative to VP-16; for IC50: read-out: Cytotoxic activity IC50, MDA-MB-231, 72 h, mean of three independent experiments ± S.D.
BT-549 [3] = settings: for percentage of survival: 72 h; for Potency compared to control POD: BT-549, relative to POD; for Potency compared to control VP-16: BT-549, relative to VP-16; for Selectivity index: IC50 MCF-10A / IC50 BT-549; for IC50: read-out: Cytotoxic activity IC50, BT-549, 72 h, mean of three independent experiments ± S.D.
MCF-10A [4] = settings: for percentage of survival: 0.08 µg/mL, 72 h; for Potency compared to control POD: relative to POD; for Potency compared to control VP-16: relative to VP-16
in vitro = settings: human
MCF-7 [5] = assay: Clonogenicity (recovery) assay, 72 h post-treatment, SRB; settings: for percentage of recovery: 72 h post-treatment; for effect on proliferation and recovery after treatment: in words
MDA-MB-231 [6] = assay: as above; settings: for percentage of recovery: 72 h post-treatment; for effect on proliferation and recovery after treatment: in words
BT-549 [7] = assay: as above; settings: for percentage of recovery: 72 h post-treatment; for effect on proliferation and recovery after treatment: in words
MCF-10A [8] = assay: as above; settings: for percentage of recovery: 0.08 µg/mL, 72 h post-treatment; for effect on proliferation and recovery after treatment: in words
[9] = test system: human protein tyrosyl-DNA phosphodiesterase 1 (TDP1); design: method as in ref 29 = [29]; 29. NCBI, National Center for Biotechnology Information PubChem BioAssay Database 2013 AID=686981 Available online: https://pubchem.ncbi.nlm.nih.gov/bioassay/686981 (accessed on 30 March 2016); settings: qHTS, DT40 cell line, in words; cited from earlier work
anthrax lethal toxin = settings: qHTS, ME-180 cells, in words; cited from earlier work
[10] = Water solubility (observation in culture medium); assay type: physicochemical; settings: in words
[11] = test system: MCF-7, MDA-MB-231, BT-549, and MCF-10A; assay: Cytotoxicity, clonogenicity and selectivity over the panel of breast cell lines; assay type: cell-based, human; settings: in words, SI ≥ 10 selective
[12] = Cytotoxic activity IC50, MCF-10A, 72 h, mean of three independent experiments ± S.D.

SMILES | Selectivity index (MCF-7 [1]) | percentage of survival (MCF-7 [1]; MCF-7, 0.08 µg/mL) | Potency compared to control POD (MCF-7 [1]) | Potency compared to control VP-16 (MCF-7 [1]) | IC50 (MCF-7 [1]) | Selectivity index (MDA-MB-231 [2]) | percentage of survival (MDA-MB-231 [2]; MDA-MB-231, 0.08 µg/mL) | percentage of survival (MDA-MB-231 [2]; MDA-MB-231, 0.4 µg/mL) | Potency compared to control POD (MDA-MB-231 [2]) | Potency compared to control VP-16 (MDA-MB-231 [2]) | IC50 (MDA-MB-231 [2]) | percentage of survival (BT-549 [3]; BT-549, 0.08 µg/mL) | Potency compared to control POD (BT-549 [3]) | Potency compared to control VP-16 (BT-549 [3]) | IC50 (BT-549 [3]) | percentage of survival (MCF-10A [4]) | percentage of recovery (MCF-7 [5]; MCF-7, 0.08 µg/mL) | percentage of recovery (MDA-MB-231 [6]; MDA-MB-231, 0.4 µg/mL) | effect on proliferation and recovery after treatment (MDA-MB-231 [6]; MDA-MB-231, 10 and 2 µg/mL) | percentage of recovery (MCF-10A [8]; MCF-10A) | further results
COc1ccc([C@@H]2c3cc4c(c(OC)c3C[C@H]3COC(=O)[C@@H]32)OCO4)cc1OC [Compound 1, 5′-demethoxy-β-peltatin-A-methylether] | 0.02 | 130% ± 18.55% | 0.002 | 0.017 | 7220 nM and 7200 nM | 0.06 | 96% ± 6.9% | 28% ± 3.1% | 0.010 | 0.016 | 2440 nM and 2400 nM | 82% ± 15.7% | 0.004 | 0.126 | 1260 nM and 1200 nM and 1270 nM | 61% ± 7.9% | 172% ± 24.5% | 49% ± 18.6% | inhibited proliferation and blocked recovery | 83% ± 3.3% | Selectivity index (BT-549 [3]): 0.11; IC50 (MCF-10A [4]; read-out: Cytotoxic activity IC50, 72 h, mean of three independent experiments ± S.D.): 137 ± 15 nM; Potency compared to control POD (MCF-10A [4]): 0.144; Potency compared to control VP-16 (MCF-10A [4]): 0.341; IC50 at 72 h (in vitro; [12]): 130 nM; effect on proliferation and recovery after treatment (MCF-7 [5]; MCF-7, 10, 2, and 0.4 µg/mL): dose-dependent cytotoxic effect at concentrations of 10, 2, and 0.4 µg/mL, which persisted after removal of the treatment; percentage of recovery (MDA-MB-231 [6]; MDA-MB-231, 0.08 µg/mL): 184% ± 6.4%; percentage of recovery (BT-549 [7]; BT-549, 0.08 µg/mL): 124% ± 9.7%; effect on proliferation and recovery after treatment (BT-549 [7]; BT-549, 10, 2, and 0.4 µg/mL): dose-dependent cytotoxic effect at concentrations of 10, 2, and 0.4 µg/mL, which persisted after removal of the treatment; effect on proliferation and recovery after treatment (MCF-10A [8]; MCF-10A, 10, 2, and 0.4 µg/mL): dose-dependent cytotoxic effect at concentrations of 10, 2, and 0.4 µg/mL, which persisted after removal of the treatment
COc1cc([C@@H]2c3cc4c(cc3[C@H](OC(C)=O)[C@H]3COC(=O)[C@H]23)OCO4)cc(OC)c1OC [Compound 2, acetylpodophyllotoxin] | 2.42 | 121% ± 10.8% | 0.135 | 0.942 | 132 ± 17 nM | 1.77 | 101% ± 5.7% | 21% ± 0.6% | 0.136 | 0.217 | 180 ± 3 nM | 96% ± 5.5% | 0.465 | 14.1 and 14.151 | 11 ± 4 nM | 61% ± 7.8% | 209% ± 12.4% | 36% ± 16.8% | completely inhibited proliferation and prevented recovery | 85% ± 4.5% | percentage of survival (BT-549 [3]; BT-549, 0.4 µg/mL): 61% ± 10.6%; selectivity according to the selectivity criteria (SI ≥ 10 selective) (BT-549 [3]; BT-549 vs MCF-10A, in words): selective compound; Potency compared to control POD (MCF-10A [4]): 0.062; Potency compared to control VP-16 (MCF-10A [4]): 0.147; inhibitory activity against TDP1 [9]: inhibitory activity; effect on anthrax lethal toxin internalization (anthrax lethal toxin): interferes in the internalization process; IC50 at 72 h (in vitro; [12]): 318 ± 12 nM; effect on proliferation and recovery after treatment (MCF-7 [5]; MCF-7, 10, 2, and 0.4 µg/mL): dose-dependently inhibited the proliferation and the recovery of cells; percentage of recovery (MDA-MB-231 [6]; MDA-MB-231, 0.8 µg/mL): 194% ± 14.7%; percentage of recovery (BT-549 [7]; BT-549, 0.4 µg/mL): around 114% ± 18.5%; percentage of recovery (BT-549 [7]; BT-549, 0.8 µg/mL (same concentrations)): ~191% ± 27.1%; effect on proliferation and recovery after treatment (BT-549 [7]; BT-549, 10 and 2 µg/mL): completely inhibited proliferation and prevented recovery; effect on proliferation and recovery after treatment (MCF-10A [8]; MCF-10A, 10, 2, and 0.4 µg/mL): dose-dependently inhibited the proliferation and the recovery of cells
COc1cc(C2=C3C(=O)OC[C@@H]3[C@@H](OC(C)=O)c3cc4c(cc32)OCO4)cc(OC)c1OC [Compound 4, 7′,8′-dehydroacetylpodophyllotoxin] | 1.32 | 96% ± 13.5% | 0.050 | 0.351 | 350 nM and 353 nM | 2.90 | 93% ± 6.9% | 57% ± 1.4% | 0.151 | 0.242 | 160 nM and 161 nM | 74% ± 7.4% | 0.086 | 2.6 and 2.604 |  | about 55% ± 17.2% | 177% ± 15.6% | 75% ± 12.2% | inhibitory effect on the survival and recovery | 160% ± 21% | water solubility [10]: low water solubility; percentage of survival (MCF-7 [1]; MCF-7, 0.4 µg/mL): 21% ± 7.2%; percentage of survival (MCF-7 [1]; MCF-7, 2 µg/mL): 11% ± 7.6%; percentage of survival (BT-549 [3]; BT-549, 0.4 µg/mL): 48% ± 8.8%; Selectivity index (BT-549 [3]): 7.62; Potency compared to control POD (MCF-10A [4]): 0.042; Potency compared to control VP-16 (MCF-10A [4]): 0.100; IC50 at 72 h (in vitro; [12]): 468 ± 2 nM; percentage of recovery (MCF-7 [5]; MCF-7, 0.4 µg/mL): 57% ± 14.5%; percentage of recovery (MCF-7 [5]; MCF-7, 2 µg/mL): 29% ± 0.7%; percentage of recovery (MDA-MB-231 [6]; MDA-MB-231, 0.08 µg/mL): 180% ± 13.5%; percentage of recovery (BT-549 [7]; BT-549, 0.08 µg/mL): 176% ± 18%; percentage of recovery (BT-549 [7]; BT-549, 0.4 µg/mL): 98% ± 27.9%; effect on proliferation and recovery after treatment (BT-549 [7]; BT-549, 10 and 2 µg/mL): inhibitory effect on the survival and recovery
COc1cc([C@@H]2c3cc4c(cc3[C@H](O)[C@H]3COC(=O)[C@H]23)OCO4)cc(OC)c1OC [POD, Podophyllotoxin, reference compound] | 1.11 |  |  |  | 18 ± 1 nM | 0.81 |  |  |  |  | 24 ± 6 nM |  |  |  | 5 ± 1 nM |  |  |  |  |  | selectivity in the selectivity analysis [11]: non-selective activity; survival (MCF-10A [4]; even at high concentrations (10, 2, 0.4, 0.08, and 0.016 µg/mL)): about 20%; IC50 at 72 h (in vitro): 20 ± 8 nM; effect on proliferation and recovery after treatment (MCF-7 [5]; MCF-7, different POD concentrations): arrest of cell proliferation, which persisted even after the toxic agent was removed; effect on proliferation and recovery after treatment (MDA-MB-231 [6]; MDA-MB-231, different POD concentrations): arrest of cell proliferation, which persisted even after the toxic agent was removed; effect on proliferation and recovery after treatment (BT-549 [7]; BT-549, different POD concentrations): arrest of cell proliferation, which persisted even after the toxic agent was removed; effect on proliferation and recovery after treatment (MCF-10A [8]; MCF-10A, different POD concentrations): arrest of cell proliferation, which persisted even after the toxic agent was removed
COc1cc([C@@H]2c3cc4c(cc3[C@@H](O[C@@H]3O[C@@H]5CO[C@@H](C)O[C@H]5[C@H](O)[C@H]3O)[C@H]3COC(=O)[C@H]23)OCO4)cc(OC)c1O [VP-16, etoposide, reference compound] | 0.38 | 71% ± 20.7% |  |  | 124 ± 26 nM | 1.20 | 82% ± 5.6% | 48% ± 2.4% |  |  | 38 ± 4 nM | 67% ± 7.5% |  |  | 160 ± 10 nM | 46% ± 2.8% | 183% ± 7.4% | 98% ± 16.1% | caused inhibition of proliferation and cell recovery | 79% ± 5.1% | selectivity in the selectivity analysis [11]: non-selective compound; Selectivity index (BT-549 [3]): 0.29; IC50 at 72 h (in vitro; MCF-10A cells, Cytotoxic activity IC50, MCF-10A, 72 h, mean of three independent experiments ± S.D.): 47 ± 9 nM; effect on proliferation and recovery after treatment (MCF-7 [5]; MCF-7, 10, 2, and 0.4 µg/mL): did not recover proliferation after treatment; percentage of recovery (MDA-MB-231 [6]; MDA-MB-231, 0.08 µg/mL): 160% ± 7.4%; percentage of recovery (BT-549 [7]; BT-549, 0.08 µg/mL): 101% ± 11.7%; effect on proliferation and recovery after treatment (BT-549 [7]; BT-549, 10, 2, and 0.4 µg/mL): did not recover proliferation after treatment; effect on proliferation and recovery after treatment (MCF-10A [8]; MCF-10A, 10, 2, and 0.4 µg/mL): did not recover proliferation after treatment
